Measurements as given in ChEMBL document CHEMBL1667742, “Angiotensin II receptor type 1 (AT1) selective nonpeptidic antagonists--a perspective” (Bioorg Med Chem, 2010).
Substitutions are numbered along the chain they refer to.

Key:
[1] = molecular target: T1, Type-2 angiotensin II receptor (Homo sapiens, UniProt P50052); experiment: Binding affinity to angiotensin AT2 receptor
T1 sequence (P50052 whole entry): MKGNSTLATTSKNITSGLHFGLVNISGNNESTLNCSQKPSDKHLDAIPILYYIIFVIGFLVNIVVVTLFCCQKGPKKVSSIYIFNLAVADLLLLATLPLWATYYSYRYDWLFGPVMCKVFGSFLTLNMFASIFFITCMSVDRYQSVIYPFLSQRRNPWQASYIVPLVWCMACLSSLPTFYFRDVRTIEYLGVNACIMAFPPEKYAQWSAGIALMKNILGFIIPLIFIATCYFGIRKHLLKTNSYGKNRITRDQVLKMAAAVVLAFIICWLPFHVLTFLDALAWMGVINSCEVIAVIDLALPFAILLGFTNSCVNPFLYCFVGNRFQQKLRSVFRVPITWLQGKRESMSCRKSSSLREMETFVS

[2] = Binding affinity to angiotensin AT1 receptor in rat liver membranes; format: cell membranes, Membrane
[3] = molecular target: T2, Type-1 angiotensin II receptor (Homo sapiens, UniProt P30556); experiment: (§1) Antagonist activity at angiotensin AT1 receptor; format: functional; details: for Kb: read-out: pA2 (converted)
T2 sequence (P30556 whole entry): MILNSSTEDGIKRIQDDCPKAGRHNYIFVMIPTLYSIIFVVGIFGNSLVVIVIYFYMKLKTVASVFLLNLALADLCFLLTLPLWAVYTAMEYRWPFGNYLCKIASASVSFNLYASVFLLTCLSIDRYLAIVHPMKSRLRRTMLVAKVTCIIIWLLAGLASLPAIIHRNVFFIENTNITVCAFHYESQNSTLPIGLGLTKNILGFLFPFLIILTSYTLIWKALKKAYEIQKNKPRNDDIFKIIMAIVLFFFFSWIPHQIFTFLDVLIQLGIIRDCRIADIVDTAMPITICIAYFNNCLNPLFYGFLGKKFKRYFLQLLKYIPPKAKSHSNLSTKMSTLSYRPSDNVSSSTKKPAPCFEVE

[4] = molecular target: T3, Type-1 angiotensin II receptor (Oryctolagus cuniculus) (UniProt P34976); experiment: (§2) Antagonist activity at angiotensin AT1 receptor in rabbit aorta; format: functional, tissue-based
T3 sequence (whole entry): T2 sequence (P30556 whole entry) with I2M, V49A, I254V, I270V, R272H, R311K, T349S, A353V

[5] = Antagonist activity at angiotensin AT1 receptor in rat adrenal cortical membranes; format: functional, cell membranes
[6] = molecular target: T4, Type-1 angiotensin II receptor (Bos taurus) (UniProt P25104); experiment: Binding affinity to angiotensin AT1 receptor in bovine adrenal cortex membranes; format: cell membranes; details: Membrane
T4 sequence (whole entry): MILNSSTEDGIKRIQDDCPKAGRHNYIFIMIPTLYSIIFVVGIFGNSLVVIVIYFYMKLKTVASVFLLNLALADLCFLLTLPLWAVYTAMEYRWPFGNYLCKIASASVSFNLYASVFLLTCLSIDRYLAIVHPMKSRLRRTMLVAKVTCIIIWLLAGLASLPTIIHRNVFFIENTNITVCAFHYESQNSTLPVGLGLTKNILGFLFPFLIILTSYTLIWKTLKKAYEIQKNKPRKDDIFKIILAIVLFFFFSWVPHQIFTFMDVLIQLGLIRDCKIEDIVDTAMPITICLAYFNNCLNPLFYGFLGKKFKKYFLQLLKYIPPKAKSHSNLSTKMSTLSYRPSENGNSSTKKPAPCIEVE

[7] = molecular target: T5, Type-1 angiotensin II receptor (Oryctolagus cuniculus, UniProt P34976); experiment: as §2; format: functional, tissue-based; details: read-out: pA2 (converted)
T5 sequence (P34976 whole entry): T2 sequence (P30556 whole entry) with I2M, V49A, I254V, I270V, R272H, R311K, T349S, A353V

[8] = molecular target: T2, Type-1 angiotensin II receptor; experiment: Binding affinity to angiotensin AT1 receptor
[9] = molecular target: T5, Type-1 angiotensin II receptor; experiment: Binding affinity to angiotensin AT1 receptor in rabbit aortic rings
[10] = Antagonist activity at angiotensin AT1 receptor in rat liver membranes; format: functional, cell membranes, Membrane
[11] = Displacement of radiolabeled angiotensin2 from angiotensin AT1 receptor in rat adrenal cortex membranes; format: cell membranes, Membrane
[12] = molecular target: T5, Type-1 angiotensin II receptor; experiment: Antagonist activity at angiotensin AT1 receptor in rabbit aorta assessed as reduction of angiotensin 2-induced contractile response; format: functional, tissue-based; details: read-out: pA2 (converted)
[13] = molecular target: T6, Type-1 angiotensin II receptor (Homo sapiens) (UniProt P30556); experiment: Ratio of compound Ki to losartan Ki for angiotensin AT1 receptor
T6 sequence (whole entry): T2 sequence (P30556 whole entry)

[14] = molecular target: T6, Type-1 angiotensin II receptor (Homo sapiens); experiment: as §1; format: functional
Rattus norvegicus [15] = experiment: Inhibition of angiotensin 2-induced response in iv dosed normotensive rat; format: functional; details: Rattus norvegicus, iv; read-out: ID50 (the source's name)
Rattus norvegicus [16] = experiment: Ratio of compound ED50 to losartan ED50 for po dosed renal hypertensive rat model; format: functional

Question: With `CCCCc1nc(Cl)c2n1C(c1ccc(-c3ccccc3-c3nnn[nH]3)cc1)CC(C(=O)O)=C2` (stereo not drawn) as the compound, how does the IC50 [1] read?
Answer: Its IC50 is 10 nM.

Question: With `CCc1nc2c(C)cc(C)nc2n1Cc1ccc(-c2c(-c3nn[nH]n3)cnc3ccccc23)cc1` as the compound, how does the IC50 [2] read?
Answer: The IC50 was 0.4 nM.

Question: Which Kb [3] does the source give for `C[C@@H]1CN(Cc2ccc(-c3ccccc3-c3nn[nH]n3)cc2)C[C@H](C)O1` here?
Answer: Its Kb is 126 nM.

Question: With `CCc1nc2c(n1Cc1ccc(-c3ccccc3-c3nn[nH]n3)cc1)/C(=C/C(=O)O)CCCC2` as the compound, how does the IC50 [2] read?
Answer: Its IC50 is 5.5 nM.

Question: And the pD2 [4]?
Answer: The pD2 was 9.91.

Question: Which IC50 [5] does the source give for `CCCc1cc(=O)n(CC(=O)N(C)C)c(=O)n1Cc1ccc(-c2ccccc2-c2nn[nH]n2)cc1` here?
Answer: Its IC50 is 0.65 nM.

Question: And the Activity [6]?
Answer: Its Activity is 9.3 nM.

Question: For `CCc1nc2c(C)cc(C)nc2n1Cc1ccc(-c2ccccc2S(=O)(=O)NC(=O)c2ccccc2)cc1`, which Kb [7] is on record?
Answer: Its Kb is 0.0501 nM.

Question: Which Ki [8] does the source give for `CCCc1nc(C)n2[nH]c(=O)nc2c1Cc1ccc(-c2ccccc2-c2nnn[nH]2)cc1` here?
Answer: The Ki was 24 nM.

Question: For `CCCCC1=NC(Cl)=C(C(=O)O)C(C)N1Cc1ccc(-c2ccccc2-c2nnn[nH]2)cc1` (stereo not drawn), which Ki [8] is on record?
Answer: Its Ki is 1 nM.

Question: Which Kb [3] does the source give for `CCCCc1cn(CCCC)c(=O)n1Cc1ccc(-c2ccccc2-c2nnn[nH]2)cc1` [SC-51895] here?
Answer: Its Kb is 2.24 nM.

Question: What about the IC50 [8] of the same compound?
Answer: Its IC50 is 12 nM.

Question: Which Kb [7] does the source give for `CCc1nc2c(CC)cn(Cc3ccc(-c4ccccc4-c4nn[nH]n4)cc3)n2n1` here?
Answer: The Kb was 1.51 nM.

Question: With `CCc1nc2c(C)cc(C)nc2n1Cc1ccc2c(c1)CCN2C(c1ccccc1)c1nnn[nH]1` (stereo not drawn) as the compound, how does the IC50 [9] read?
Answer: The IC50 was 1 nM.

Question: With `CCc1cc(Sc2ccc(-c3ccccc3-c3nn[nH]n3)cc2)c2ncccc2n1` as the compound, how does the IC50 [10] read?
Answer: The IC50 was 20 nM.

Question: For `CCCCc1cn([C@H]2[C@H](C)CCC[C@@H]2C)c(=O)n1Cc1ccc(-c2ccccc2-c2nnn[nH]2)nc1` [SC-55634], which Kb [3] is on record?
Answer: The Kb was 0.501 nM.

Question: And the IC50 [8]?
Answer: The IC50 was 4.9 nM.

Question: Which IC50 [11] does the source give for `CCCc1nc(C(F)(F)C(F)(F)F)c(C(=O)O)n1Cc1ccc(-c2ccccc2-c2nn[nH]n2)cc1` here?
Answer: Its IC50 is 3.1 nM.

Question: What does the source list for `CCCCc1nc2ccc(C(C)(C)OC)cc2c(=O)n1Cc1ccc(-c2ccccc2-c2nn[nH]n2)cc1` [CL-329167]?
Answer: Kb [3]: 0.0126 nM; IC50 [8]: 6 nM; Kb [7]: 9.77 nM

Question: Which Kb [3] does the source give for `CCCCc1cn(CCCC)c(=O)n1Cc1ccc(-c2ccccc2-c2nnn[nH]2)nc1` [SC-52892] here?
Answer: Its Kb is 2.09 nM.

Question: What about the IC50 [8] of the same compound?
Answer: Its IC50 is 6.5 nM.

Question: Which Kb [12] does the source give for `CCCCCc1nc(SCc2ccc(-c3ccccc3C(=O)O)cc2)nn1Cc1ccc(-c2ccccc2C(=O)O)cc1` here?
Answer: The Kb was 3.98 nM.

Question: What does the source list for `CCOc1nc2cccc(C(=O)O)c2n1Cc1ccc(-c2ccccc2-c2nnn[nH]2)cc1`?
Answer: Ratio Ki [13]: 10; pD2 [14]: 9.97; IC50 [8]: 110 nM

Question: With `CCCc1cc(O)c(C)c(=O)n1Cc1ccc(-c2ccccc2-c2nn[nH]n2)cc1` as the compound, how does the ED50 (Rattus norvegicus [15]) read?
Answer: The ED50 was 0.02 mg/kg.

Question: For `CCc1nn(Cc2ccc(-c3ccccc3-c3nn[nH]n3)cc2)/c(=N/C(=O)C2=C(C(=O)[O-])CCC2)s1.[K+]`, which IC50 [3] is on record?
Answer: The IC50 was 0.4 nM.

Question: What about the “Ratio ED50” value (Rattus norvegicus [16]) of the same compound?
Answer: Its value is 10.

Question: With `CCCCc1nc(Cc2ccc(-c3ccccc3-c3nnn[nH]3)cc2)n(CCCC)n1` as the compound, how does the Kb [3] read?
Answer: The Kb was 3.16 nM.

Question: What about the IC50 [8] of the same compound?
Answer: Its IC50 is 16 nM.

Question: Which IC50 [1] does the source give for `CCCCc1nc(Cl)c2n1C(c1ccc(-c3ccccc3-c3nnn[nH]3)cc1)CC=C2C(=O)O` (stereo not drawn) here?
Answer: Its IC50 is 50 nM.

Question: Which IC50 [11] does the source give for `CCCc1nc(CC)c(C=O)n1Cc1ccc(-c2ccccc2-c2nn[nH]n2)cc1` here?
Answer: The IC50 was 2.1 nM.

Question: Which IC50 [5] does the source give for `CCCCc1nc2cccnc2n1-c1ccc(CCO/C(O)=C2\C(C(C)C)=NC(C)=C(C(=O)Nc3cccnc3)C2c2ccccc2Cl)cc1` (stereo not drawn) here?
Answer: The IC50 was 0.6 nM.

Question: For `CCCCc1nc2ccc([C@]3(C)C[C@H]4CCCN4O3)cc2c(=O)n1Cc1ccc(-c2ccccc2-c2nn[nH]n2)cc1`, which Kb [3] is on record?
Answer: Its Kb is 0.0126 nM.

Question: Which pKi [2] does the source give for `COc1c(OCc2ccc(-c3ccccc3-c3nn[nH]n3)cc2)cc(C)nc1C` here?
Answer: The pKi was 8.7.

Question: And the Kb [12]?
Answer: Its Kb is 1.51 nM.
